Test results from patent US8455523B2, “Compositions and methods for treating hyperlipidemias” (The Research Foundation of State University of New York, priority 2010, dated 2013).

Tests used:
guinea pigs = settings: cited from earlier work
[1] = test system: hepatic mRNA of ER stress, inflammation and lipid metabolism genes; assay: Hepatic mRNA quantification (qPCR, XBP-1 splicing) in treated mice; assay type: in vivo; settings: liver
Source text: FIGS. 6a and 6b. Liver samples from FIG. 16 were used to isolate total mRNA and to quantify expression of different candidate genes. Statistical analyses were as described in FIGS. 16-17.
FIGS. 9a and 9b. C57B/6J mice were fed a western diet for 8 weeks and then treated with MTP inhibitor and other indicated compounds for 8 days as described in FIG. 16. Liver samples were used to isolate mRNA and to quantify mRNA levels with different candidate genes. Stars on MTPi group represent comparison with the control group.
FIG. 16. Age matched wildtype C57/BL6J animals chow fed animals were treated with DMSO (control) or MTP inhibitor (MTPi) for one week. Age matched wildtype C57/BL6J were fed WD for one month and were administered MTPi, Lovastatin, (Lova), Pioglitazone (Pio) or 4-phenylbutyric acid (PBA) every day for one week. All drugs were administered by oral gavage. Animals were sacrificed on day 7 and livers were harvested. mRNA was extracted and subjected to qPCR analysis. * represent comparison DMSO control; # represent comparisons to WD control; @ represent comparisons to WD MTP inhibitor treated animals.
mRNA quantifications and primers used: Total RNA from tissues and cells were isolated using TriZol™ (Invitrogen). The purity and integrity of RNA were assessed by the A260/A280 ratio and 1% agarose gel electrophoresis, respectively. Only the RNAs with ratios more than 1.7 were used for cDNA synthesis. The first strand cDNA was synthesized using Omniscript RT (Qiagen) kit. Briefly, 2 μg of total RNA, 1 μM random primers (Invitrogen), 0.5 mM dNTP solution, and 0.5 U/μl Omniscript Reverse Transcriptase were incubated at 37° C. for 1 h in 20 μl of RT buffer and the reaction was terminated by incubating at 95° C. for 5 minutes. Each reaction of quantitative RT-PCR was carried out in a volume of 20 μl consisting of 5 μl cDNA sample (1:100 dilution of the first strand cDNA sample) and 15 μl of PCR master mix solution containing 1×PCR reaction buffer, 6 mM MgCl2, 200 nM primer pair, 0.025 U/μl HotStar Gold™ DNA polymerase, 200 μM dNTP solution, and 0.3 μl SYBR Green I solution (gPCR™ Core Kit for SYBR Green I, Eurogentec). The PCR was carried out by incubating the reaction mixture first for 10 minute at 95° C. followed by 40 cycles of 15 sec incubations at 95° C. and 1 min at 60° C. in the ABI 7000 SDS PCR machine. The data were analyzed using ΔΔCT method according to manufacturer's instruction and presented as arbitrary units. The primers used in this study were designed with the PrimerExpress 3.0 software (Applied Biosystems, CA) and are presented as Table 1.

[2] = test system: C57Bl/6J mice fed either a chow or western diet; assay: MTP inhibitor BMS-212122-01 with or without lovastatin, pioglitazone or PBA in chow or western diet fed C57Bl/6J mice; assay type: in vivo; settings: WD one month
Protocol: FIG. 13. Age matched wildtype C57/Bl6J animals chow fed animals were treated with DMSO (control) or MTP inhibitor (MTPi) for one week. […] All drugs were administered by oral gavage. Animals were sacrificed on day 7 and plasma and livers were harvested and analyzed. * represent comparison to DMSO control; # represent comparisons to WD control; @ represent comparisons to WD MTP inhibitor treatment.
FIG. 18. Age matched wildtype C57/BL6J were fed WD for one month and were administered MTPi, or 4-phenylbutyric acid (PBA) everyday for one week. All drugs were administered by oral gavage. Animals were sacrificed on day 7 and livers were harvested. * represent comparison DMSO control; # represent comparisons to HF MTP inhibitor treated animals.
(§1) C57BL/6J Black 6 mice (stock number 000664) were obtained from Jackson Laboratory and used for chow fed and western diet fed experiments. MTP inhibitor (BMS […]) (1 mg/kg/day), Lovastatin, Pioglitazone (Toronto Research Chemicals P471000) (25 mg/kg/day) and 4-phenylbutyric acid (Calbiochem 820986) (1 g/kg/day) were administered by oral gavage. Chow fed animals were treated for one week with either DMSO or MTP inhibitor. Western diet fed animals were fed DMSO, MTP inhibitor, Pioglitazone, MTP inhibitor+Pioglitazone, Lovastatin, MTP inhibitor+Lovastatin, 4-phenylbutyric acid, and MTP inhibitor+4-phenylbutyric acid. Chow fed animals were also injected with either PBS or Tunicamycin and animals were sacrificed at 4, 8, 12 and 24 hours.
All animals were kept in 07:00-19:00 h lighting schedule. […] Food was withdrawn 16 h before the sacrifice of the mice. On the day of the experiment, mice were anesthetized and blood was collected from the heart. Liver was collected, washed in ice-cold PBS, cut into small pieces and used for lipid extraction, histological staining, to measure different protein activities/quantities and for mRNA analysis. Lipids were extracted from the tissue homogenates following the Bligh and Dyer method. Triglyceride (Infinity TM Triglyceride, TR22421) and total cholesterol (Infinity TM Cholesterol, TR13421) levels in the tissues were determined using commercial kits (Thermo Scientific). Free cholesterol and free fatty acid levels were measured using kits from Wako Chemicals (Germany). Esterified cholesterol was calculated by subtracting the free cholesterol from the total cholesterol.
We next studied the effects of chemical inhibition of MTP in C57Bl/6J mice fed either a chow or western diet (WD) for 5 weeks. Chow fed animals were orally gavaged with either DMSO or MTP inhibitor BMS-212122-01 (MTPi; 1 mg/kg/day) for one week. WD fed animals were treated with DMSO, MTP inhibitor with or without lovastatin (50 mg/kg/day) or pioglitazone (25 mg/kg/day) daily by oral gavage for one week.

[3] = in vivo; cited from earlier work
MTP [4] = molecular target: MTP (Homo sapiens, UniProt P55157); settings: cited from earlier work
C57Bl/6J mice = assay: ER stress induction by tunicamycin in mice: plasma AST/ALT and lipids; assay type: in vivo
Protocol: FIG. 10. Effect of tunicamycin on plasma ALT/AST levels. W iid type mice were injected intraperitoneally with 1 mg/kg tunicamycin. Plasma were collected after 48 h and used to measure enzyme activities.
FIG. 17. Age matched wildtype C57/BL6J animals chow fed animals were injected via IP with either PBS or Tunicamycin. Animals were sacrificed at 4, 8, 12 and 24 hours. Plasma and livers were collected and mRNA extracted from liver samples.
To determine whether ER stress itself would increase plasma AST/ALT, C57Bl/6J mice were injected with tunicamycin (1 mg/kg) as described before. Plasma AST/ALT levels were measured after 36 h (FIG. 10). […] We will be measuring cellular lipid to determine whether tunicamycin affects hepatic lipid levels as well as mRNA and protein levels of different candidate genes involved in ER stress pathway.
as §1

MTP [5] = molecular target: T1, MTP (Mus musculus, UniProt O08601); assay: Determination of MTP activity in tissues (liver homogenates of treated mice); assay type: in vivo; settings: chow fed C57/BL6J, IP tunicamycin, 4-24 hours
T1 construct: small pieces (0.1 g) of liver and ˜1-cm segments of proximal small intestine were homogenized; from tissue; host or cells: mouse liver (C57BL/6J; Reversa mice in some experiments); supernatant of ultracentrifuged homogenate
T1 sequence (O08601 22-894): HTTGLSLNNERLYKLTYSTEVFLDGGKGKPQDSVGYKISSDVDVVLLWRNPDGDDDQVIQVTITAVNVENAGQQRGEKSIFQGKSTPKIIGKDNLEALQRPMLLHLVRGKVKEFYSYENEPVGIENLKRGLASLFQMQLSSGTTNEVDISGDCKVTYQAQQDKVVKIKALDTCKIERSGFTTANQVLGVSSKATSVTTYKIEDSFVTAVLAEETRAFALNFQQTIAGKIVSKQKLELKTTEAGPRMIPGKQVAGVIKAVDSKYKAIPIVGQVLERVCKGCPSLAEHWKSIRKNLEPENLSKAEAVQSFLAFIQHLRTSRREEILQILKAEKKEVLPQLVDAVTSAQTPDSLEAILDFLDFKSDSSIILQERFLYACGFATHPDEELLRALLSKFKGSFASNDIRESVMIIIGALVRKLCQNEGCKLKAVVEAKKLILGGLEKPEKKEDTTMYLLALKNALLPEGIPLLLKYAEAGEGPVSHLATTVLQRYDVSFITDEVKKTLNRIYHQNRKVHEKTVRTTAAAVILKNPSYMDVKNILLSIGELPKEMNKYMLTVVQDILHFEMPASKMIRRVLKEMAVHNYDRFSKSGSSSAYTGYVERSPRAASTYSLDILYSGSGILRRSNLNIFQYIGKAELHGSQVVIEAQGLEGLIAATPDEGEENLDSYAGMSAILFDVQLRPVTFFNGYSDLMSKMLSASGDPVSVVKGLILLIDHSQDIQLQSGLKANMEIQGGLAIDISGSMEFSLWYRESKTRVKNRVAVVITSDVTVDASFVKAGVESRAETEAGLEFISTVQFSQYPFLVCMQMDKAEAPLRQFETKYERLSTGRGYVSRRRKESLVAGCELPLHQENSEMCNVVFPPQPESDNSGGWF
T1 sequence (P09103 21-509 partner limits assumed): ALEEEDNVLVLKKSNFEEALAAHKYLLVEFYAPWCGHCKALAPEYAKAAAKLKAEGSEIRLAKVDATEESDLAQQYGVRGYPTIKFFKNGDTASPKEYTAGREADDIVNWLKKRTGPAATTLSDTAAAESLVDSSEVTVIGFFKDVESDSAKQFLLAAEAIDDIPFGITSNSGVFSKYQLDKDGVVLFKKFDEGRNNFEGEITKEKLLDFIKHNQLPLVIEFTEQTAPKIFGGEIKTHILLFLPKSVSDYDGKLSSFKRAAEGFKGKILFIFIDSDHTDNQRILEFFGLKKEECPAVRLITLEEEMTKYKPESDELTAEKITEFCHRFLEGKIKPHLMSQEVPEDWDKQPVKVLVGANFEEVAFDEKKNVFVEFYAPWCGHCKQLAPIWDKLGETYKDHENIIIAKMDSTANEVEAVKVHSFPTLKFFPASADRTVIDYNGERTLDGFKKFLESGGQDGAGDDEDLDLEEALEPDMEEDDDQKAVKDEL
Protocol: After extensive washes with ice-cold PBS, small pieces (0.1 g) of liver and ˜1-cm segments of proximal small intestine were homogenized with 1 ml of ice-cold 1 mM Tris-HCl, pH 7.6, 1 mM EGTA, and 1 mM MgCl2 buffer in a glass homogenizer. The homogenates were centrifuged (SW55 Ti rotor, 50,000 rpm, 10° C., 1 h), and supernatants were used for MTP assay as described before (41; 42) using a kit (Chylos, Inc.).

[6] = chow fed C57/BL6J, IP, 4-24 hours

Sequence of MTP (Homo sapiens, UniProt P55157) (P55157 19-894, species assumed): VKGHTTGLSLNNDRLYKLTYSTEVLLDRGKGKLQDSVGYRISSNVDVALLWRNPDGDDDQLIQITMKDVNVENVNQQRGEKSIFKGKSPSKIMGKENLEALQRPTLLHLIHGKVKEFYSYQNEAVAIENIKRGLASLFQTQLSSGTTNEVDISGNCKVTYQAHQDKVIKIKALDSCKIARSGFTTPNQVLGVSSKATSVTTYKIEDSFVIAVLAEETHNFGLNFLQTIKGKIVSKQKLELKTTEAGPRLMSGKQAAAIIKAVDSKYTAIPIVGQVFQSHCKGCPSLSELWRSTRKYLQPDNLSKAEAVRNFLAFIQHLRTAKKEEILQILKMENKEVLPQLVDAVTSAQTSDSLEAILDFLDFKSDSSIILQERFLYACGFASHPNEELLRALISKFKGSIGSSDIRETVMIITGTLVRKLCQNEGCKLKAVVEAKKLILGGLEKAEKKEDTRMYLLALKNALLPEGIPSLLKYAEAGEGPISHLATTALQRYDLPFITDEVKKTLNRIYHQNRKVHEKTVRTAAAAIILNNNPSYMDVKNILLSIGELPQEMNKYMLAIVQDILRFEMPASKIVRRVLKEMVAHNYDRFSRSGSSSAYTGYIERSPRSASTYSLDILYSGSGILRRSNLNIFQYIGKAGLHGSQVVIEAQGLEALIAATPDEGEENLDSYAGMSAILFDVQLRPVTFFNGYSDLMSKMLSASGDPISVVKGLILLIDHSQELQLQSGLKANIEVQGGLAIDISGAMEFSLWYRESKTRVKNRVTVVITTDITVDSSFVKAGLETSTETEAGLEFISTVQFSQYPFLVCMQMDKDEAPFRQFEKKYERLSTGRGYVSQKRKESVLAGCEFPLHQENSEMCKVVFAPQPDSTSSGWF
Sequence of MTP (Homo sapiens, UniProt P55157) (P07237 18-508 partner, species assumed): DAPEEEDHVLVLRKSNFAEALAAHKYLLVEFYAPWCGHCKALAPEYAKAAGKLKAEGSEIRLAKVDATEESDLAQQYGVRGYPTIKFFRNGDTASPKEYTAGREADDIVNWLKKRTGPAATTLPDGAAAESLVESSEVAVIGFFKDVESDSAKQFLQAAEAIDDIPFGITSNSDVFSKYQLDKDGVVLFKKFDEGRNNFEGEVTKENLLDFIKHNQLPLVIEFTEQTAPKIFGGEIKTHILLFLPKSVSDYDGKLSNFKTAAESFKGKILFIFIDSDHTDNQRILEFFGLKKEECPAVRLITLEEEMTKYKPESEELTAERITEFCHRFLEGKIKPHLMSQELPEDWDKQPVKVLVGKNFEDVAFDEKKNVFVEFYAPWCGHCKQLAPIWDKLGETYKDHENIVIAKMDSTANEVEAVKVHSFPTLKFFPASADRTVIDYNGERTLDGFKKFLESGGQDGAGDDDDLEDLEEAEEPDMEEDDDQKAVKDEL

In the case of `CCOC(=O)C(COC(=O)Cc1ccc(NC(=O)c2ccccc2-c2ccc(C(F)(F)F)cc2)c(C(=O)N(C)C)c1)(C(=O)OCC)c1ccccc1` [JTT-130], the hepatic triglyceride (guinea pigs) is given as “without increasing” and the “plasma triglyceride and LDL cholesterol” value (guinea pigs) is given as “lower”.

In the case of `O=C(O)CCCc1ccccc1` [PBA, 4-phenylbutyric acid], the “mRNA levels of ER stress markers vs MTPi treated animals” value ([1]; PBA with MTPi) is reported as “significantly lower”, the “hepatic triglycerides and free cholesterol (hepatic lipids)” value ([2]; MTPi ± PBA one week) is reported as “did not reduce” and the “MTP activity, hepatic and plasma lipids” value ([2]; PBA 1 g/kg/day alone or co-administered with MTP inhibitor, one week) is reported as “no effect”. The “rises in plasma AST/ALT after MTP inhibition” value ([2]; PBA 1 g/kg/day with MTP inhibitor, one week) was “spared increases”.

For `COc1cccc(C(=O)Nc2ccc3c(c2)CCN(C(=O)Oc2ccccc2)C3)c1-c1ccc(C(F)(F)F)cc1` [SLx-4090], the plasma lipids [3] is listed as “lower”.

In the case of `O=C1c2c(O)cc(O)cc2OC(c2ccc(O)c(O)c2)C1O` (stereo not shown) [Taxifolin], the cellular lipids (MTP [4]) is listed as “without increasing” and the “triglyceride synthesis and MTP activity” value (MTP [4]) is listed as “inhibits”.

In the case of tunicamycin, the “Plasma AST/ALT levels” value (C57Bl/6J mice; 1 mg/kg injected, measured after 36 h) is reported as “significantly enhanced”, the “plasma AST/ALT vs PBS injected animals” value (C57Bl/6J mice; 24 hours after injection) is reported as “still significantly elevated” and the “increase of plasma AST/ALT” value (C57Bl/6J mice; acute induction of ER stress) is reported as 2.5 fold. The “time of peak plasma AST/ALT levels after injection” value (C57Bl/6J mice; chow fed C57/BL6J, IP) was 8 h, the hepatic lipids (C57Bl/6J mice; [6]) was “increased” and the “plasma cholesterol and triglycerides” value (C57Bl/6J mice; [6]) was “lowered”. For the same molecule, the plasma transaminases (C57Bl/6J mice; chow fed C57/BL6J, IP, vs PBS) was “higher”, the XBP-1 splicing assay ([1]; tunicamycin IP) was “revealed the spliced form of XBP-1” and the “mRNA expression of ER stress markers Bip, Ire1α and CHOP” value ([1]; tunicamycin IP time course) was “elevations”. For the same molecule, the “hepatic MTP activity” value (MTP [5]) was “no effect”.
